Patent US7205326B2, “Aniline derivatives, their manufacture and use as pharmaceutical agents” (Hoffmann-La Roche Inc., priority 2003, dated 2007)

Tests used:
HCT116 cells = assay: HCT116 cell proliferation MTT assay; assay type: cell-based; settings: HCT-116; HCT116 human colon carcinoma cells, MTT assay after 5 days (120 h) incubation, compound 3 uM to 0.15 nM
Method: HCT116 cells (human colon carcinoma cell line) were cultivated in RPMI 1640, 2.5% FCS, 2 mM Glutamine, 100 u/ml Penicillin, 100 ug/ml Streptomycin. For the assay the cells were seeded in 384 well plates, 1000 cells per well, in the same medium
The next day compounds (dissolved 10 mM in DMSO) were added in various concentrations ranging from 3 uM to 0.15 nM. After 5 days the MTT assay was done mainly according to the instructions of the manufacturer (Cell proliferation kit I, MTT, from Roche Molecular Biochemicals). In brief: MTT labeling reagent was added to a final concentration of 0.5 mg/ml, added and incubated for 4 hrs at 37° C., 5% CO2. During this incubation time purple formazan crystals are formed. After addition of the solubilization solution (20% SDS in 0.02 M HCl) the plates were incubated overnight at 37° C., 5% CO2. After careful mixing plates were measured in Victor 2 (scanning multiwell spectrophotometer, Wallac) at 550 nm.
A decrease in number of living cells results in a decrease in the total metabolic activity in the sample. The decrease directly correlates to the amount of purple color resulting from the solubilization of the purple formazan crystals.
Materials: • HCT116 1000 cells in 60 ul per well of 384 well plate (Greiner) • Medium: RPMI 1640, 2.5% FCS, glutamine, pen/strep. • Incubate 1 day at 37° C.
Induction: • Dilution of compound in DMSO: 3 ul 10 mM+27 ul DMSO, dilute 1:3 • Add 2 ul of compound dilution row to 95 ul of medium • Add 10 ul of compound dilution to 60 ul medium in test plate results in 0.3% DMSO per well • Incubate 120 h (5 days) at 37° C., 5% CO2
Analysis: • Add 7 ul MTT ([…]), incubate 4 h at 37° C. • Add 30 ul lysis buffer (20% SDS, 0.04N HCl) per well • Incubate overnight at 37° C.
Measurement: • Victor 2 (scanning multiwell spectrophotometer, Wallac), at 550 nm • Determination of IC50 was done using XL-fit.

FC(F)(F)Sc1ccc(C=Cc2nc(CNc3ccc(CCCCn4ccnn4)cc3)co2)cc1 [Example 8, [4-(4-[1,2,3]Triazol-1-yl-butyl)-phenyl]-{2-[2-(4-trifluoromethylsulfanyl-phenyl)-vinyl]-oxazol-4-ylmethyl}-amine] showed an IC50 (HCT116 cells) of less than 20 nM and a melting point of 76 to 78 °C.

For CN(Cc1coc(C=Cc2ccc(Cl)cc2)n1)c1ccc(CCCCn2ccnn2)cc1 [Example 15, {2-[2-(4-Chloro-phenyl)-vinyl]-oxazol-4-ylmethyl}-methyl-[4-(4-[1,2,3]triazol-1-yl-butyl)-phenyl]-amine], the IC50 (HCT116 cells) was greater than 40 nM.

In the case of C(=Cc1nc(CNc2ccc(CCCCn3ccnn3)cc2)co1)c1ccc2c(c1)OCO2 [Example 6, [2-(2-Benzo[1,3]dioxol-5-yl-vinyl)-oxazol-4-ylmethyl]-[4-(4-[1,2,3]triazol-1-yl-butyl)-phenyl]-amine], the IC50 (HCT116 cells) is reported as greater than 40 nM and the melting point is reported as 130 to 131 °C.

Clc1ccc(C=Cc2nc(CNc3ccc(CCCCn4ccnn4)cc3)co2)cc1 [Example 5, {2-[2-(4-Chloro-phenyl)-vinyl]-oxazol-4-ylmethyl}-[4-(4-[1,2,3]triazol-1-yl-butyl)-phenyl]-amine] gave an IC50 (HCT116 cells) of less than 20 nM and a melting point of 120 to 122 °C.

Compound Fc1cc(Cl)ccc1C=Cc1nc(CNc2ccc(CCCCn3ccnn3)cc2)co1 [Example 35, {2-[2-(4-Chloro-2-fluoro-phenyl)-vinyl]-oxazol-4-ylmethyl}-[4-(4-[1,2,3]triazol-1-yl-butyl)-phenyl]-amine] has an IC50 (HCT116 cells) greater than 40 nM.

Compound CN(Cc1coc(C=Cc2ccc(SC(F)(F)F)cc2)n1)c1ccc(CCCCn2ccnn2)cc1 [Example 14, Methyl-[4-(4-[1,2,3]triazol-1-yl-butyl)-phenyl]-{2-[2-(4-trifluoromethylsulfanyl-phenyl)-vinyl]-oxazol-4-ylmethyl}-amine] has an IC50 (HCT116 cells) of less than 20 nM.

CN(C(=O)c1coc(C=Cc2ccc(OC(F)F)cc2)n1)c1ccc(CCCCn2ccnn2)cc1 [Example 32, 2-[2-(4-Difluoromethoxy-phenyl)-vinyl]-oxazole-4-carboxylic acid methyl-[4-(4-[1,2,3]-triazol-1-yl-butyl)-phenyl]-amide] gave an IC50 (HCT116 cells) greater than 40 nM.

CN(Cc1coc(C=Cc2ccc(C(F)(F)F)cc2)n1)c1ccc(OCCCn2ccnn2)cc1 [Example 10, Methyl-[4-(3-[1,2,3]triazol-1-yl-propoxy)-phenyl]-{2-[2-(4-trifluoromethyl-phenyl)-vinyl]-oxazol-4-ylmethyl}-amine] gave an IC50 (HCT116 cells) greater than 40 nM and a melting point of 137 to 138 °C.

Work on O=C(Nc1ccc(CCCCn2ccnn2)cc1)c1coc(C=Cc2ccc(OC(F)(F)F)cc2)n1 [Example 21, 2-[2-(4-Trifluoromethoxy-phenyl)-vinyl]-oxazole-4-carboxylic acid [4-(4-[1,2,3]triazol-1-yl-butyl)-phenyl]-amide] yielded an IC50 (HCT116 cells) greater than 40 nM.

With O=C(Nc1ccc(CCCCn2ccnn2)cc1)c1coc(C=Cc2ccc(OC(F)F)cc2)n1 [Example 31, 2-[2-(4-Difluoromethoxy-phenyl)-vinyl]-oxazole-4-carboxylic acid-[4-(4-[1,2,3]triazol-1-yl-butyl)-phenyl]-amide] the IC50 (HCT116 cells) was less than 20 nM.

For FC(F)(F)Sc1ccc(C=Cc2nc(CNc3ccc(OCCCn4ccnn4)cc3)co2)cc1 [Example 17, [4-(3-[1,2,3]Triazol-1-yl-propoxy)-phenyl]-{2-[2-(4-trifluoromethylsulfanyl-phenyl)-vinyl]-oxazol-4-ylmethyl}-amine], the IC50 (HCT116 cells) was greater than 40 nM.

With CN(Cc1coc(C=Cc2ccc3c(c2)OCO3)n1)c1ccc(CCCCn2ccnn2)cc1 [Example 13, [2-(2-Benzo[1,3]dioxol-5-yl-vinyl)-oxazol-4-ylmethyl]-methyl-[4-(4-[1,2,3]triazol-1-yl-butyl)-phenyl]-amine] the IC50 (HCT116 cells) was greater than 40 nM.

Work on FC(F)Oc1ccc(C=Cc2nc(CNc3ccc(CCCCn4ccnn4)cc3)co2)cc1 [Example 4, {2-[2-(4-Difluoromethoxy-phenyl)-vinyl]-oxazol-4-ylmethyl}-[4-(4-[1,2,3]triazol-1-yl-butyl)-phenyl]-amine] yielded an IC50 (HCT116 cells) greater than 40 nM and a melting point of 101 to 102 °C.

For FC(F)(F)Oc1ccc(C=Cc2nc(CNc3ccc(OCCCn4ccnn4)cc3)co2)cc1 [Example 16, [4-(3-[1,2,3]Triazol-1-yl-propoxy)-phenyl]-{2-[2-(4-trifluoromethoxy-phenyl)-vinyl]-oxazol-4-ylmethyl}-amine], the IC50 (HCT116 cells) was greater than 40 nM.

In the case of FC(F)(F)c1ccc(C=Cc2nc(CNc3ccc(COCCn4ccnn4)cc3)co2)cc1 [Example 37, [4-(2-[1,2,3]Triazol-1-yl-ethoxymethyl)-phenyl]-{2-[2-(4-trifluoromethyl-phenyl)-vinyl]-oxazol-4-ylmethyl}-amine], the IC50 (HCT116 cells) is reported as 20 to 40 nM.

CN(C(=O)c1coc(C=Cc2ccc(C(F)(F)F)cc2)n1)c1ccc(CCCCn2ccnn2)cc1 [Example 12, 2-[2-(4-Trifluoromethyl-phenyl)-vinyl]-oxazole-4-carboxylic acid methyl-[4-(4-[1,2,3]triazol-1-yl-butyl)-phenyl]-amide] showed an IC50 (HCT116 cells) of 20 to 40 nM and a melting point of 127 to 129 °C.

For FC(F)(F)c1ccc(C=Cc2nc(CNc3ccc(OCCCn4ccnn4)cc3)co2)cc1 [Example 9, [4-(3-[1,2,3]Triazol-1-yl-propoxy)-phenyl]-{2-[2-(4-trifluoromethyl-phenyl)-vinyl]-oxazol-4-ylmethyl}-amine], the IC50 (HCT116 cells) was less than 20 nM and the melting point was 134 to 136 °C.

For CN(C(=O)c1coc(C=Cc2ccc(OC(F)(F)F)cc2)n1)c1ccc(OCCCn2ccnn2)cc1 [Example 23, 2-[2-(4-Trifluoromethoxy-phenyl)-vinyl]-oxazole-4-carboxylic acid methyl-[4-(3-[1,2,3]triazol-1-yl-propoxy)-phenyl]-amide], the IC50 (HCT116 cells) was greater than 40 nM.

FC(F)(F)Oc1ccc(C=Cc2nc(CNc3ccc(CCCCn4ccnn4)cc3)co2)cc1 [Example 1, [4-(4-[1,2,3]Triazol-1-yl-butyl)-phenyl]-{2-[2-(4-trifluoromethoxy-phenyl)-vinyl]-oxazol-4-ylmethyl}-amine] gave an IC50 (HCT116 cells) of less than 20 nM and a melting point of 103 to 105 °C.

FC(F)(F)Oc1ccc(C=Cc2nc(CNc3ccc(COCCn4ccnn4)cc3)co2)cc1 [Example 36, [4-(2-[1,2,3]Triazol-1-yl-ethoxymethyl)-phenyl]-{2-[2-(4-trifluoromethoxy-phenyl)-vinyl]-oxazol-4-ylmethyl}-amine] showed an IC50 (HCT116 cells) of less than 20 nM.

In the case of O=C(Nc1ccc(OCCCn2ccnn2)cc1)c1coc(C=Cc2ccc(OC(F)(F)F)cc2)n1 [Example 20, 2-[2-(4-Trifluoromethoxy-phenyl)-vinyl]-oxazole-4-carboxylic acid [4-(3-[1,2,3]triazol-1-yl-propoxy)-phenyl]-amide], the IC50 (HCT116 cells) is reported as greater than 40 nM.

In the case of FC(F)(F)c1ccc(C=Cc2nc(CNc3ccc(CCCCn4ccnn4)cc3)co2)cc1 [Example 2, [4-(4-[1,2,3]Triazol-1-yl-butyl)-phenyl]-{2-[2-(4-trifluoromethyl-phenyl)-vinyl]-oxazol-4-ylmethyl}-amine], the IC50 (HCT116 cells) is reported as less than 20 nM and the melting point is reported as 113 to 115 °C.

For Fc1ccc(C=Cc2nc(CNc3ccc(CCCCn4ccnn4)cc3)co2)c(F)c1 [Example 34, {2-[2-(2,4-Difluoro-phenyl)-vinyl]-oxazol-4-ylmethyl}-[4-(4-[1,2,3]triazol-1-yl-butyl)-phenyl]-amine], the IC50 (HCT116 cells) was less than 20 nM.

Work on Clc1ccc(C=Cc2nc(CNc3ccc(OCCCn4ccnn4)cc3)co2)cc1 [Example 18, {2-[2-(4-Chloro-phenyl)-vinyl]-oxazol-4-ylmethyl}-[4-(3-[1,2,3]triazol-1-yl-propoxy)-phenyl]-amine] yielded an IC50 (HCT116 cells) greater than 40 nM.

For O=C(Nc1ccc(CCCCn2ccnn2)cc1)c1coc(C=Cc2ccc3c(c2)OC(F)(F)O3)n1 [Example 29, 2-[2-(2,2-Difluoro-benzo [1,3]dioxol-5-yl)-vinyl]-oxazole-4-carboxylic acid [4-(4-[1,2,3]triazol-1-yl-butyl)-phenyl]-amide], the IC50 (HCT116 cells) was less than 20 nM.

For FC(F)(F)c1cccc(C=Cc2nc(CNc3ccc(CCCCn4ccnn4)cc3)co2)c1 [Example 26, [4-(4-[1,2,3]Triazol-1-yl-butyl)-phenyl]-{2-[2-(3-trifluoromethyl-phenyl)-vinyl]-oxazol-4-ylmethyl}-amine], the IC50 (HCT116 cells) was greater than 40 nM.

CN(C(=O)c1coc(C=Cc2ccc(OC(F)(F)F)cc2)n1)c1ccc(CCCCn2ccnn2)cc1 [Example 22, 2-[2-(4-Trifluoromethoxy-phenyl)-vinyl]-oxazole-4-carboxylic acid methyl-[4-(4-[1,2,3]triazol-1-yl-butyl)-phenyl]-amide] gave an IC50 (HCT116 cells) greater than 40 nM.

O=C(Nc1ccc(OCCCn2ccnn2)cc1)c1coc(C=Cc2ccc(C(F)(F)F)cc2)n1 [Example 19, 2-[2-(4-Trifluoromethyl-phenyl)-vinyl]-oxazole-4-carboxylic acid [4-(3-[1,2,3]triazol-1-yl-propoxy)-phenyl]-amide] gave an IC50 (HCT116 cells) greater than 40 nM.
